Results published in patent US20190192543A1, “NOVEL USE” (IDOGEN AB, priority 2016, published 2019).

System: IDO1 gene expression in THP-1 cells
Assay: Induction of IDO1 in THP-1 cells (RT-qPCR)
Type: cell-based, human
Conditions: for IDO1 expression (fold change): 96 hours, normalised to HPRT1, vs DMSO control
Description: THP-1 cells were harvested from appropriate number of T75 flasks. Cells were counted in a Bürker chamber, stained with 0.4% Trypan Blue. The appropriate number of cells for each experiment were transferred to a new tube and centrifuged at 1200 rpm, 5 min at room temperature (RT). The supernatant was discarded and fresh RPMI with 5% FBS were added to get a cell concentration of 2×10^5 cells/mL. The compound was added to the five separate wells in 6-well plates such that five different final concentrations were obtained after adding the cells. A control was added to one well in the 6-well plate to which cells were added. 1×10^6 cells per well were seeded out to achieve a total volume of 5 mL per well. The cells were incubated at 37° C. in 5% CO2 for 96 hours. After 96 hours the assay was stopped and the cells were lysed for the isolation of RNA.
Total RNA was extracted from THP-1 cells using the RNA RNeasy Mini extraction kit (Qiagen), according to the manufacturer's instructions. A SuperScript® VILO™ RT-kit (Thermo Fisher) was used to reverse transcribe 1 μg of total RNA to cDNA and qPCR was performed. The primers used for amplification of the human IDO1 gene were 5″-[…]-3″ (forward; SEQ ID No. 1) and 5″-[…]-3″ (reverse; SEQ ID No. 2). The primers used for amplification of the endogenous reference gene for human HPRT1 were 5″-[…]-3″ (forward; SEQ ID No. 3) and 5″-[…]-3″ (reverse; SEQ ID No. 4). In brief, RT-qPCR was performed in 20 μl reaction, consisting 10 μl PowerUp SYBR Green Master Mix, 0.5 μM of each primer, 4 μl diluted cDNA for amplification of IDO1 and 1.5 μl diluted cDNA for amplification of HPRT1. An iCycler iQ real-time detection system (Stratagene, Mx3000P, La Jolla, Calif., USA) with the following thermal profile: UDG incubation at 50° C. for 2 min, then denaturation at 95° C. for 5 min, followed by 45 cycles at 94° C. for 15 s, 58° C. for 30 s, and 60° C. for 30 s, was used to perform thermocycling and real-time detection of PCR products. After amplification a melting curve analysis was performed. The RT-qPCR experiments were always run in triplicate. IDO1 was normalised to the geometric means of two HPRT1 reference gene, using the ΔCt method. Within-group comparisons were normalized to one control sample, using the ΔΔCt method.
The procedure under “Induction of IDO1 in THP-1 cells” was followed such that the final concentrations set out in Table 1 were obtained.
Following RNA extraction and quantification of gene expression by RT-qPRC, as described above, induction of IDO1 gene expression using Samples 1 to 6 was investigated.

## Nc1ncn([C@H]2C[C@H](OP(=O)(O)OC[C@H]3O[C@@H](n4cnc5c(=O)[nH]c(N)nc54)C[C@@H]3O)[C@@H](CO)O2)c(=O)n1 [guadecitabine]
0.1 micromolar
  IDO1 expression (fold change): 2.1 fold change
0.3 micromolar
  IDO1 expression (fold change): 4.7 fold change
1 micromolar
  IDO1 expression (fold change): 34 fold change
3 micromolar
  IDO1 expression (fold change): 68 fold change
10 micromolar
  IDO1 expression (fold change): 74 fold change
Guadecitabine alone, 0.1-10 micromolar, highest induction at 10 micromolar
  increase of IDO1 gene expression (maximum over tested concentrations): up to 74 fold
